“And” between values parts separate entries of the source, which are not always exact repeats. Identical values can stand only once. After the bases stand the sugars from the 5' end (letter, count) and the backbone: PS all phosphorothioate, else s phosphorothioate and o phosphodiester by linkage. Methylation of C is not given here. e = 2'-O-(2-methoxyethyl) (MOE); l = locked nucleic acid (LNA); k = constrained ethyl (cEt); d = 2'-deoxy (DNA)
Columns and labels:
ANGPTL2 = details: ASO
MYH7 = details: ASO, CC-2580, 5 µM
KRAS = details: ASO

| Sequence | target mRNA inhibition (ANGPTL2; 5 µM) [%] | target mRNA inhibition (ANGPTL2; 25 µM) [%] | target mRNA inhibition (MYH7) | also measured |
| --- | --- | --- | --- | --- |
| AACCATTTTGAGATTCC (sugars l4 d11 l2, PS) | 67.7 | 81.3 |  |  |
| AACCATTTTGAGATTCCC (sugars l3 d13 l2, PS) | 40.2 | 52.7 |  |  |
| ACAAGCCAGTTGTATGT (sugars l1 d12 l4, PS) | 58.2 | 72.3 |  |  |
| ACACCCAAGACTCAGAT (sugars l4 d11 l2, PS) | 6.49 | 5.75 |  |  |
| ACAGGGAAAGAATTTGGGTC (sugars l1 d16 l3, PS) | 44.4 | 37.5 |  |  |
| AGCTCATTGTTGAGCAG (sugars l1 d13 l3, PS) | 4.81 | 13.2 |  |  |
| AGGCCAACACTAACTCG (sugars l2 d13 l2, PS) | 70.5 | 78.8 |  |  |
| AGGGGCTATGACTATCC (sugars l1 d14 l2, PS) | 41.3 | 45.9 |  |  |
| AGTTCTGTTTGATCTTC (sugars l2 d11 l4, PS) | 52.7 | 69.2 |  |  |
| AGTTGATAGTTTATCTCC (sugars l2 d14 l2, PS) | 51.7 | 64.9 |  |  |
| CAGCTCATTGTTGAGCA (sugars l2 d13 l2, PS) | 0.32 |  |  |  |
| CAGCTTGGCGATGATCT (sugars l1 d9 l4 d1 l2, PS) |  |  | -1% and -10% |  |
| CAGCTTGGCGATGATCT (sugars l2 d7 l1 d4 l3, PS) |  |  | 18% and -5% |  |
| CAGCTTGGCGATGATCT (sugars l2 d11 l4, PS) |  |  | 65% and 45% |  |
| CAGCTTGGCGATGATCT (sugars l2 d12 l3, PS) |  |  | 67% and 45% |  |
| CAGCTTGGCGATGATCT (sugars lddlddddddddlldll, PS) |  |  | 29% and 5% |  |
| CAGCTTGGCGATGATCT (sugars lddlddddddlddddll, PS) |  |  | 21% and 4% |  |
| CAGCTTGGCGATGATCT (sugars lddlddldddddlddll, PS) |  |  | 40% and 20% |  |
| CAGCTTGGCGATGATCT (sugars lddlldddddldlddll, PS) |  |  | 8% and -2% |  |
| CAGCTTGGCGATGATCT (sugars lddlldddddlldddll, PS) |  |  | 15% and 12% |  |
| CAGCTTGGCGATGATCT (sugars lddllddddldddddll, PS) |  |  | 23% and 2% |  |
| CAGCTTGGCGATGATCT (sugars lddlllddlddddddll, PS) |  |  | 12% and 3% |  |
| CAGCTTGGCGATGATCT (sugars ldldddddddlddllll, PS) |  |  | 40% and 31% |  |

| Sequence | target mRNA inhibition (ANGPTL2; 5 µM) [%] | target mRNA inhibition (ANGPTL2; 25 µM) [%] | target mRNA inhibition (MYH7) | also measured |
| --- | --- | --- | --- | --- |
| CAGCTTGGCGATGATCT (sugars ldldldddddddldlll, PS) |  |  | 9% and 2% |  |
| CAGCTTGGCGATGATCT (sugars ldldlddddddlddlll, PS) |  |  | 38% and 29% |  |
| CAGCTTGGCGATGATCT (sugars ldldlddldddddddll, PS) |  |  | 28% and 3% |  |
| CAGCTTGGCGATGATCT (sugars ldldldldddddddlll, PS) |  |  | 37% and 14% |  |
| CAGCTTGGCGATGATCT (sugars lldddddddlddlddll, PS) |  |  | 19% and 5% |  |
| CAGCTTGGCGATGATCT (sugars lldddddddlddlldll, PS) |  |  | 30% and 25% |  |
| CAGCTTGGCGATGATCT (sugars lldddddddldldldll, PS) |  |  | 1% and -1% |  |
| CAGCTTGGCGATGATCT (sugars llddddddldddlddll, PS) |  |  | 17% and -2% |  |
| CAGCTTGGCGATGATCT (sugars llddddddlddldldll, PS) |  |  | 2% and 0% |  |
| CAGCTTGGCGATGATCT (sugars llddddlddddldldll, PS) |  |  | 15% and 5% |  |
| CAGCTTGGCGATGATCT (sugars lldddldddddddldll, PS) |  |  | 28% and 4% |  |
| CAGCTTGGCGATGATCT (sugars lldlddddddldlddll, PS) |  |  | 4% and -20% |  |
| CAGCTTGGCGATGATCT (sugars lldlddddlddddddll, PS) |  |  | 23% and -1% |  |
| CAGCTTGGCGATGATCT (sugars lldldldddldddddll, PS) |  |  | -1% and -7% |  |
| CAGCTTGGCGATGATCT (sugars lldlldlddldddddll, PS) |  |  | -6% and 1% |  |
| CAGGTGCTGGTACTTGTG (sugars l1 d15 l2, PS) | 40.4 | 54.2 |  |  |
| CCAGCCGCAGCTTATA (sugars l1 d13 l2, PS) | 21.8 | 35.3 |  |  |
| CCAGGCAGTTTCTTATG (sugars l1 d13 l3, PS) | 16.4 | 25.8 |  |  |
| CCTTTTCACTCTCAATAT (sugars l3 d13 l2, PS) | 36.8 | 43.5 |  |  |
| CGGTTGTAGGTGGGTGG (sugars l1 d14 l2, PS) | 21.1 | -3.3 |  |  |
| CTATCCTCTCCCAAACATG (sugars l1 d16 l2, PS) | 16 | 24.1 |  |  |
| CTCCGGTAATGGCCC (sugars l1 d12 l2, PS) | -5 | 15.6 |  |  |
| CTTGGCAATGATCTCATCC (sugars l2 d5 l1 d7 l4, PS) |  |  | 69% and 45% |  |

| Sequence | target mRNA inhibition (ANGPTL2; 5 µM) [%] | target mRNA inhibition (ANGPTL2; 25 µM) [%] | target mRNA inhibition (MYH7) | also measured |
| --- | --- | --- | --- | --- |
| CTTGGCAATGATCTCATCC (sugars l4 d12 l3, PS) |  |  | 73% and 58% |  |
| CTTGGCAATGATCTCATCC (sugars ldddddddddldlddddll, PS) |  |  | 45% and 22% |  |
| CTTGGCAATGATCTCATCC (sugars ldddddddldllddlddll, PS) |  |  | 43% and 24% |  |
| CTTGGCAATGATCTCATCC (sugars lddddddlddllddlddll, PS) |  |  | 34% and 17% |  |
| CTTGGCAATGATCTCATCC (sugars ldddddldddldlddldll, PS) |  |  | 31% and 22% |  |
| CTTGGCAATGATCTCATCC (sugars ldddddlldlddlddddll, PS) |  |  | 30% and 22% |  |
| CTTGGCAATGATCTCATCC (sugars lddlddddddllddlddll, PS) |  |  | 7% and -2% |  |
| CTTGGCAATGATCTCATCC (sugars ldlddddddldlddlddll, PS) |  |  | 48% and 33% |  |
| CTTGGCAATGATCTCATCC (sugars lldddddddddldlddlll, PS) |  |  | 52% and 34% |  |
| CTTGGCAATGATCTCATCC (sugars llddddddldllddlddll, PS) |  |  | 34% and 10% |  |
| CTTGGCAATGATCTCATCC (sugars llddldddddddlldldll, PS) |  |  | -3% and -10% |  |
| GAACCATTTTGAGATTCC (sugars l3 d13 l2, PS) | 56.6 | 52 |  |  |
| GAACCATTTTGAGATTCCC (sugars l1 d16 l2, PS) | 27.6 | 7.84 |  |  |
| GAGCCTTTACATGCCG (sugars l2 d12 l2, PS) | 41 | 66.8 |  |  |
| GAGTTGAAGGGAGGTGC (sugars l1 d14 l2, PS) | 17.7 | -10.3 |  |  |
| GCAAAGGTCAGAAACATC (sugars l3 d12 l3, PS) | 28.8 | 37.7 |  |  |
| GCTGGAAAGAGGGATAGA (sugars l2 d14 l2, PS) | 60.7 | 66.2 |  |  |
| TAGTGGGCACAGTTTCC (sugars l1 d14 l2, PS) | 21.2 | 36.4 |  |  |
| TCCAGGGTGGTGAACTG (sugars l2 d13 l2, PS) | 25.1 | 23.2 |  |  |
| TGAAGGAAAGTAGGAGGGA (sugars l1 d15 l3, PS) | 10.6 | 16.5 |  |  |
| TGATGCGGTTGTAGGT (sugars l2 d12 l2, PS) | 73.2 |  |  |  |
| TGCTGGGGCACAATGAA (sugars l2 d12 l3, PS) | 28.2 | 2.72 |  |  |
| TGGGCATAGTGGGCAGA (sugars l1 d14 l2, PS) | 58.9 | 64 |  |  |

| Sequence | target mRNA inhibition (ANGPTL2; 5 µM) [%] | target mRNA inhibition (ANGPTL2; 25 µM) [%] | target mRNA inhibition (MYH7) | also measured |
| --- | --- | --- | --- | --- |
| TGGTTGATGATGCGGTTG (sugars l2 d14 l2, PS) | 77.6 | 86.1 |  |  |
| TGTAGGTGCACTTGTC (sugars l2 d12 l2, PS) | 28.5 | 49.4 |  |  |
| TTAACAGAGCCATCCAGG (sugars l1 d15 l2, PS) | 24.9 | 25.4 |  |  |
| TTAATCCATTTATGTG (sugars k3 d10 k3, PS) |  |  |  | target mRNA inhibition (KRAS; A431, 2 µM): 34% |
| TTAGTGATTAGGTCAA (sugars kkdddddddddkekek, PS) |  |  |  | target mRNA inhibition (KRAS; A431, 2 µM): 48% |
| TTAGTGATTAGGTCAA (sugars kkddddddddkekekk, PS) |  |  |  | target mRNA inhibition (KRAS; A431, 2 µM): 33% |
| TTATGGTTAGGGGAAT (sugars k3 d10 k3, PS) |  |  |  | target mRNA inhibition (KRAS; A431, 2 µM): 21% |
| TTCAAAGTTCACATAA (sugars k3 d10 k3, PS) |  |  |  | target mRNA inhibition (KRAS; A431, 2 µM): 7% |
| TTCATTGTTTAAAAAA (sugars k3 d10 k3, PS) |  |  |  | target mRNA inhibition (KRAS; A431, 2 µM): 6% |
| TTGAAAAGTGTTTATG (sugars k3 d10 k3, PS) |  |  |  | target mRNA inhibition (KRAS; A431, 2 µM): 26% |
| TTGAGATTCCCCCAAAG (sugars l2 d11 l4, PS) | 28.3 | 41.2 |  |  |
| TTGATGATGCGGTTGTAGG (sugars l2 d15 l2, PS) | 55.3 | 67.3 |  |  |
| TTGATGATGCGGTTGTAGGT (sugars l1 d17 l2, PS) | 41.3 | 48.7 |  |  |
| TTGATTTGTCAGCAGG (sugars kkddddddddddkeke, PS) |  |  |  | target mRNA inhibition (KRAS; A431, 0.185 µM): 25%; target mRNA inhibition (KRAS; A431, 0.556 µM): 48%; target mRNA inhibition (KRAS; A431, 1.667 µM): 62%; target mRNA inhibition (KRAS; A431, 2 µM): 66% and 45%; target mRNA inhibition (KRAS; A431, 5 µM): 83% |
| TTGATTTGTCAGCAGG (sugars kkdddddddddkdkdk, PS) |  |  |  | target mRNA inhibition (KRAS; A431, 2 µM): 53% |
| TTGGACAACTAGGCAGCA (sugars l3 d13 l2, PS) | 38.8 | 60.3 |  |  |
| TTGTACTAGTATGCCT (sugars k3 d10 k3, PS) |  |  |  | target mRNA inhibition (KRAS; A431, 2 µM): 55% |
| TTTAATGTCACAAGCA (sugars k3 d10 k3, PS) |  |  |  | target mRNA inhibition (KRAS; A431, 0.037 µM): 58%; target mRNA inhibition (KRAS; A431, 2 µM): 57%; target mRNA inhibition (KRAS; A431, 5 µM): 96% and 93%; target mRNA inhibition (KRAS; NCI-H460, 0.037 µM): 44.2% |
| TTTATGCAATGTTAAT (sugars k3 d10 k3, PS) |  |  |  | target mRNA inhibition (KRAS; A431, 2 µM): 34% |
| TTTTAATGTCACAAGC (sugars k3 d10 k3, PS) |  |  |  | target mRNA inhibition (KRAS; A431, 2 µM): 52% |

From the OligoGym collection
